Results as given in ChEMBL document CHEMBL1122957, “Artificial siderophores. 2. Syntheses of trihydroxamate analogues of rhodotorulic acid and their biological iron transport capabilities in Escherichia coli” (1985).

Assays:
Type in all cases: functional, organism-based
Escherichia coli [1] = assay: The ability of the artificial siderophores to support the growth of Escherichia coli strain RWB7 was evaluated at the concentration of 50 and 500 uM; No growth around the disc
Escherichia coli [2] = assay: The ability of the artificial siderophores to support the growth of Escherichia coli strain AN 193 was evaluated at the concentration of 50 and 500 uM; No growth around the disc
Escherichia coli [3] = assay: The ability of the artificial siderophores to support the growth of Escherichia coli strain RWB7 was evaluated at the concentration of 50 uM; No growth around the disc
Escherichia coli [4] = assay: The ability of the artificial siderophores to support the growth of Escherichia coli strain BN 3306 was evaluated at the concentration of 50 uM; No growth around the disc
Escherichia coli [5] = assay: The ability of the artificial siderophores to support the growth of Escherichia coli strain AN 193 was evaluated at the concentration of 50 uM; No growth around the disc
Escherichia coli [6] = assay: The ability of the artificial siderophores to support the growth of Escherichia coli strain BN 3300 was evaluated at the concentration of 50 uM; No growth around the disc
Escherichia coli [7] = assay: The ability of the artificial siderophores to support the growth of Escherichia coli strain RWB7 was evaluated at the concentration of 25 uM; No growth around the disc
Escherichia coli [8] = assay: The ability of the artificial siderophores to support the growth of Escherichia coli strain RW 193 was evaluated at the concentration of 50 and 500 uM; No growth around the disc
Escherichia coli [9] = assay: The ability of the artificial siderophores to support the growth of Escherichia coli strain BN 3306 was evaluated at the concentration of 50 and 500 uM; No growth around the disc
Escherichia coli [10] = assay: The ability of the artificial siderophores to support the growth of Escherichia coli strain BN 3300 was evaluated at the concentration of 50 and 500 uM; No growth around the disc

CC(=O)N(O)CCCn1c(=O)n(CCCN(O)C(C)=O)c(=O)n(CCCN(O)C(C)=O)c1=O
Inhibitory diameter (Escherichia coli [1]): Not toxic | Inhibitory diameter (Escherichia coli [2]): Not toxic

CC(=O)N(O)CCCCn1c(=O)n(CCCCN(O)C(C)=O)c(=O)n(CCCCN(O)C(C)=O)c1=O
Inhibitory diameter (Escherichia coli [1]): Not toxic

FERRICHROME
Inhibitory diameter (Escherichia coli [3]): Not toxic | Inhibitory diameter (Escherichia coli [4]): Not toxic | Inhibitory diameter (Escherichia coli [5]): Not toxic | Inhibitory diameter (Escherichia coli [6]): Not toxic

CC(=O)N(O)CCCCCn1c(=O)n(CCCCCN(O)C(C)=O)c(=O)n(CCCCCN(O)C(C)=O)c1=O
Inhibitory diameter (Escherichia coli [1]): Not toxic | Inhibitory diameter (Escherichia coli [2]): Not toxic

O=C(N[C@H]1COC(=O)[C@@H](NC(=O)c2cccc(O)c2O)COC(=O)[C@@H](NC(=O)c2cccc(O)c2O)COC1=O)c1cccc(O)c1O
Inhibitory diameter (Escherichia coli [7]): Not toxic

CC(=O)N(O)CCC[C@@H]1NC(=O)[C@H](CCCN(O)C(C)=O)NC1=O
Inhibitory diameter (Escherichia coli [3]): Not toxic | Inhibitory diameter (Escherichia coli [4]): Not toxic | Inhibitory diameter (Escherichia coli [6]): Not toxic

CN(O)C(=O)CCCCCn1c(=O)[nH]c(=O)n(CCCCCC(=O)N(C)O)c1=O
Inhibitory diameter (Escherichia coli [8]): Not toxic | Inhibitory diameter (Escherichia coli [1]): Not toxic | Inhibitory diameter (Escherichia coli [9]): Not toxic | Inhibitory diameter (Escherichia coli [2]): Not toxic | Inhibitory diameter (Escherichia coli [10]): Not toxic

CN(O)C(=O)CCCCCn1c(=O)n(CCCCCC(=O)N(C)O)c(=O)n(CCCCCC(=O)N(C)O)c1=O
Inhibitory diameter (Escherichia coli [1]): Not toxic | Inhibitory diameter (Escherichia coli [9]): Not toxic | Inhibitory diameter (Escherichia coli [2]): Not toxic | Inhibitory diameter (Escherichia coli [10]): Not toxic
